Patent publication US11045456B2, “Compositions and methods for treating COPD and other inflammatory conditions” (Georgia State University Research Foundation, Inc., priority 2015, dated 2021)
pIC50: −log10 of the molar value.

Experiments:
PDE4A and 4C = assay: Expression of other PDE4 family members (PDE4A, 4C) in BEAS-2B cells; format: cell-based, human; details: NTHi or roflumilast
Text: Cell culture. All media described below were supplemented with 10% fetal bovine serum (Sigma-Aldrich). Human bronchial epithelial BEAS-2B cells were maintained in RPMI medium (Life Technologies) (ATCC® CRL-9609™). Human primary bronchial epithelial NHBE (Lonza) cells were maintained in bronchial epithelial growth media (BEGM) supplemented with BEGM SingleQuots (Jono et al., J. Biol. Chem. 277(47):45547-45557, 2002). BEAS-2B cells stably expressing human PDE4B2 (PDE4B2-stable cells) were obtained by plasmid transfection following Geneticin selection (300 μg/mL). Cells were cultured in a humidified atmosphere of 5% CO2 at 37° C.

PDE4D = assay: Expression of PDE4D in BEAS-2B cells; format: cell-based, human; details: NTHi or roflumilast
PDE4B2 = PDE4B2 protein expression (Western blot) in mouse lung tissue extracts; format: in vivo; details: NTHi and roflumilast
Method: Western blot. Whole-cell extracts and mouse lung tissue extracts were recovered with lysis buffer (50 mM Tris-HCl at pH7.4, 1% NP40, 0.25% deoxycholate, 150 mM NaCl, 1 mM EDTA, 1 mM NaF, supplemented with 1 mM Na3VO4 and PIC). For PDE4B protein, cell extracts were recovered with Buffer A as described above. Cell or tissue extracts were separated on 8% SDS-PAGE gels and transferred to polyvinylidene difluoride (PVDF) membrane (GE Healthcare Life Sciences). The membrane was blocked with a solution of TBS containing 0.1% Tween 20 (TBS-T) and 5% non-fat dry milk. The membrane was then incubated in a 1:1,000-1:2,000 dilution of a primary antibody in 5% BSA-TBS-T. After washing (×3) with TBS-T, the membrane was incubated with a 1:5,000 dilution of the corresponding secondary antibody in 2.5% non-fat dry milk-TBS-T. Respective proteins were visualized using Amersham ECL Prime Regent (GE Healthcare Life Sciences).
Mice and animal experiments. […]
Immunofluorescent staining. Formalin-fixed paraffin-embedded mouse lung tissue was sectioned (4 μm) and PDE4B protein was detected using a rabbit anti-PDE4B and an FITC-conjugated goat anti-rabbit IgG (Santa Cruz Biotechnology). Stained sections were then imaged, and images were recorded under light- and fluorescence-microscopy systems (AxioVert 40 CFL, AxioCam MRC, and AxioVision LE Image system, Carl Zeiss).

[1] = system: CCL5, CCL7, CXCL10, CXCL11, IL-8, GM-CSF and TNF-α; assay: NTHi-induced expression of pro-inflammatory mediators in BEAS-2B cells; format: cell-based, human
Method: Bacterial strains and culture condition. […] Bacteria were grown on chocolate agar plates at 37° C. in an atmosphere of 5% CO2 overnight and subsequently inoculated in brain heart infusion (BHI) broth supplemented with 3.5 μg/mL NAD and hemoglobin (BD Biosciences). After overnight incubation, the bacteria were subcultured into fresh broth and the log phase bacteria, monitored by measurement of optical density (OD) value, were washed and suspended in DMEM for in vitro cell experiments and in isotonic saline for in vivo animal experiments. For all in vitro experiments except the dose dependent experiment, NTHi was treated at multiplicity of infection (MOI) of 50.
Cell culture. All media described below were supplemented with 10% fetal bovine serum (Sigma-Aldrich). […] BEAS-2B cells stably expressing human PDE4B2 (PDE4B2-stable cells) were obtained by plasmid transfection following Geneticin selection (300 μg/mL). Cells were cultured in a humidified atmosphere of 5% CO2 at 37° C.

NF-κB promoter = assay: IKKβ-CA-induced NF-κB promoter activity (luciferase) in PDE4B2-transfected cells; format: cell-based, human; details: up to 10 μM
Method: (§1) Plasmids, transfections and luciferase assay. […] Empty vector was used as a control and was also added where necessary to ensure an equivalent amount of input DNA. All transient transfections were carried out in triplicate using TRANSIT-LT1® reagent (Minis) following the manufacturer's instruction.

[2] = system: Group A chemokines (CCL5, CCL7, CXCL10, CXCL11); assay: IKKβ-CA-induced Group A-chemokine expression in PDE4B2-transfected cells; format: cell-based, human; details: up to 10 μM
Method: as §1

p65 = p65 phosphorylation by Phos-tag PAGE in BEAS-2B cells; format: cell-based, human; details: roflumilast as co-treatment with NTHi
Method: Phos-tag PAGE. Recombinant p65 proteins or nuclear extracts recovered without EDTA/EGTA were separated by SDS-PAGE, with 6% gels containing 50 μM Mn^2+-Phos-tag Acrylamide and transferred to PVDF membrane according to the manufacture's instructions (Kinoshita et al., Mol. Cell. Proteomics 5(4):749-757, 2006.

p65 and PKA-Cβ = assay: Co-immunoprecipitation of p65 and PKA-Cβ in BEAS-2B cells; format: cell-based, human; details: BEAS-2B cells transfected with p65 and PKA-Cβ; co-treatment of roflumilast with NTHi
Method: Immunoprecipitation. Cell extracts were incubated with 1 μg of primary antibodies overnight at 4° C., followed by a 2 h incubation with protein G PLUS-agarose beads (Santa Cruz Biotechnology). Immunoprecipitates were then suspended in a sample buffer, separated on 8% SDS-PAGE gels, transferred to PVDF membrane, and detected by immunoblot analysis as described above.

p65 or PKA-Cβ = assay: Nuclear expression level of p65 or PKA-Cβ in BEAS-2B cells; format: cell-based, human
Method: Subcellular fractionation. Cells were washed twice and […] with ice cold PBS and centrifuged at 3,000×g for 5 min. The cells were then suspended with Buffer A (10 mM HEPES at pH7.4, 10 mM KCl, 0.1 mM EDTA, 0.1 mM EGTA, 1 mM DTT, supplemented with 1 mM Na3VO4 and PIC) and incubated on ice for 10 min (Schreiber et al., Nucleic Acids Res. 17(15):6419, 1989). The cells were lysed by adding NP40 (0.5%) and vortexing for 15 sec. then centrifuged at 3,000×g for 5 min before the supernatants were removed (cytosol fraction). Precipitates were resuspended in Buffer B (20 mM HEPES at pH7.5, 5 mM NaCl, 1 mM EDTA, […], 1 mM DTT, supplemented with 1 mM Na3VO4 and PIC) and incubated on ice for 10 min. before vortexing and centrifuging at 16,000×g for 15 min to recover the supernatants (nuclear fraction). Western blot. Whole-cell extracts and mouse lung tissue extracts were recovered with lysis buffer (50 mM Tris-HCl at pH7.4, 1% NP40, 0.25% deoxycholate, 150 mM NaCl, 1 mM EDTA, 1 mM NaF, supplemented with 1 mM Na3VO4 and PIC). For PDE4B protein, cell extracts were recovered with Buffer A as described above. Cell or tissue extracts were separated on 8% SDS-PAGE gels and transferred to polyvinylidene difluoride (PVDF) membrane (GE Healthcare Life Sciences). The membrane was blocked with a solution of TBS containing 0.1% Tween 20 (TBS-T) and 5% non-fat dry milk. […]

PDE4 = details: estimated; Bender and Beavo; cited from earlier work
PDE4B = PDE4B mRNA expression in lung tissues of NTHi-inoculated mice; details: mice, Rof 5 mg/kg i.p. 2 hours before intratracheal NTHi 5×10^7 cfu per lung, after 5 hours
[3] = cells overexpressing PDE4B2-WT or PDE4B2-D392A
[4] = cells transfected with PDE4B2-D392A

O=C(Nc1c(Cl)cncc1Cl)c1ccc(OC(F)F)c(OCC2CC2)c1 [roflumilast]
expression of PDE4A and 4C (PDE4A and 4C): not up-regulated
expression of PDE4D (PDE4D): up-regulated by NTHi or roflumilast but no significant synergistic effect
~70-kDa PDE4B isoform (PDE4B2 protein) (PDE4B2): induced an increase
NTHi-induced induction of CCL5, CCL7 and IL-8 ([1]; BEAS-2B cells): modestly suppressed
NTHi-induced induction of TNF-α and GM-CSF ([1]; BEAS-2B cells): markedly inhibited
NTHi-induced CXCL10 and CXCL11 induction ([1]; BEAS-2B cells, even at higher concentration): almost no inhibitory effect
efficacy in suppressing Group A-chemokines ([1]; in PDE4B-depleted but not in PDE4D-depleted cells): more efficacious
IKKβ-CA-induced NF-κB promoter activity (NF-κB promoter; [3]): unable to fully inhibit
IKKβ-CA-induced NF-κB promoter activity (NF-κB promoter; [4]): unable to fully inhibit
IKKβ-CA-induced Group A-chemokine expression [2, 3]: unable to fully inhibit
IKKβ-CA-induced Group A-chemokine expression [2, 4]: unable to fully inhibit
phosphorylation of p65 (induction) (p65): induced phosphorylation of p65
interaction of p65 and PKA-Cβ (p65 and PKA-Cβ): enhanced
nuclear expression level of p65 or PKA-Cβ (p65 or PKA-Cβ): did not affect
pIC50 (PDE4): > 9.00
PDE4B mRNA expression in lung tissues (PDE4B): synergistically enhanced
PDE4B mRNA expression in lung tissues (PDE4B; listed as Rof): significantly elevated
